Earlier results as cited in US10399716B2, “Personal care compositions and hangers” (The Procter & Gamble Company, priority 2014, dated 2019).

Log (water Solubility in mol/L) [log mol/L]	SMILES
−0.64	OCCOc1ccccc1 [Phenoxyethanol]
−1.41	O=C(O)c1ccccc1O [Salicylic acid]
−2.46	Oc1cc(Cl)ccc1Oc1ccc(Cl)cc1Cl [Triclosan]
−3.15	C=CCCCCCCCCC(=O)O [Undecylenic Acid]
−0.47	OCc1ccccc1 [benzyl Alcohol]
−3.08	CCCCCCC(O)CO (stereo not drawn) [caprylyl glycol]
−1.91	CCOC(=O)c1ccc(O)cc1 [ethyl paraben]
−0.83	OCCc1ccccc1 [phenethyl alcohol]
−0.33	C/C=C/C=C/C(=O)O [sorbic acid]
